How the values were obtained:
Type in all cases: in vivo
[1] = system: rat collagen induced arthritis (CIA) model; experiment: Rat collagen induced arthritis (CIA) model, hindlimb radiographs scored blindly; conditions: b.i.d., 18 days of treatment
Text: Data are the means±standard error, where n=13 per group, except for naïve (n=4). Radiographs of hindlimbs were obtained at the conclusion of the study and scored blindly. […] To examine effect of Syk inhibitor 2,4-pyrimidinediamine compound in preventing bone degeneration, a rat collagen induced arthritis model was used (see, e.g., WO 2004/014382, incorporated herein by reference). Rats were immunized with bovine collagen II on day 0 and boosted on day 7. […] Animals were subsequently treated b.i.d. with inhibitor compound or vehicle alone. After 18 days of treatment, hind paw bone structure and integrity were evaluated by X-rays, histopathology, and serum bone marker COMP.

[2] = system: cartilage oligometrix matrix protein (COMP); experiment: Rat CIA model, serum bone marker COMP; conditions: FIG. 4
Description: (§1) To examine effect of Syk inhibitor 2,4-pyrimidinediamine compound in preventing bone degeneration, a rat collagen induced arthritis model was used (see, e.g., WO 2004/014382, incorporated herein by reference). Rats were immunized with bovine collagen II on day 0 and boosted on day 7. […] Animals were subsequently treated b.i.d. with inhibitor compound or vehicle alone. After 18 days of treatment, hind paw bone structure and integrity were evaluated by X-rays, histopathology, and serum bone marker COMP.

[3] = system: rat collagen induced arthritis (CIA) model; experiment: Rat CIA model, histopathology of hind paw bone sections (safranin-O)
Text: as §1, with “Upper left—naïve rat; upper right—vehicle rat; lower left—vehicle rat; lower right—compound 1007 treated rat. Micrographs are safranin-O stained sections of hind ankle paws of CIA rats, magnification 40×. To” for “To”

COc1cc(Nc2ncc(F)c(Nc3ccc4c(n3)NC(=O)C(C)(C)O4)n2)cc(OC)c1OC [compound 1007, N4-(2,2-dimethyl-3-oxo-4H-5-pyrid[1,4]oxazin-6-yl)-5-fluoro-N2-(3,4,5-trimethoxyphenyl)-2,4-pyrimidinediamine]
bone erosion (radiograph score of hind paws) ([1]; 10 mg/kg, p<0.05): significant reduction in bone erosion
bone erosion (radiograph score of hind paws) ([1]; 30 mg/kg, p<0.001): significant reduction in bone erosion
serum levels of cartilage oligometrix matrix protein (COMP), a marker for collagen destruction [2]: reduction
severity of bone destruction (histopathological assessment of bone sections) ([3]; FIG. 2): significant reduction in severity of bone destruction
bone erosion (safranin-O stained sections of hind ankle paws) ([3]; FIG. 3, magnification 40x): reduction
osteoclast activity (safranin-O stained sections of hind ankle paws) ([3]; FIG. 3, magnification 40x): reduction
pannus formation (safranin-O stained sections of hind ankle paws) ([3]; FIG. 3, magnification 40x): reduction

Reference: patent US7576053B2, “Methods and compositions for treating degenerative bone disorders” (Rigel Pharmaceuticals, Inc., priority 2005, dated 2009)
